How the values were obtained:
[1] = determination of the minimum toxic dose; assay type: in vivo, mouse (male); details: mouse
Experimental: Male mice weighing 20-25 g were given maximum oral doses of 300 mg/kg of the test substance. The animals were observed carefully for three hours for symptoms of toxicity. In addition, all symptoms and deaths were recorded for a period of 24 hours after administration. Concomitant symptoms were likewise observed and recorded. If death or serious symptoms of toxicity were observed, further mice were given increasingly lower doses. The lowest dose which caused death or serious symptoms of toxicity is indicated in the following Table A as the minimum toxic dose.

[2] = target: T1, peripheral CCK receptors (pancreas) (Rattus norvegicus, UniProt P30551); experiment: peripheral CCK receptor binding affinity on rat pancreas homogenate (inhibition of 3[H]-CCK-8 binding); set-up: species or system rat (male Wistar); details: 0.3 nM 3[H]-CCK-8, 90 min, 25° C., pH 7.4, calculated from IC50 by Cheng-Prusoff; for Ki: read-out: In vitro binding to peripheral CCK receptors (pancreas) pKi values (converted)
T1 construct: Whole pancreas glands from male Wistar rats with a body weight of 150-300 g; from tissue; host or cells: whole pancreas glands of male Wistar rats, washed homogenate
T1 sequence (P30551 1-444): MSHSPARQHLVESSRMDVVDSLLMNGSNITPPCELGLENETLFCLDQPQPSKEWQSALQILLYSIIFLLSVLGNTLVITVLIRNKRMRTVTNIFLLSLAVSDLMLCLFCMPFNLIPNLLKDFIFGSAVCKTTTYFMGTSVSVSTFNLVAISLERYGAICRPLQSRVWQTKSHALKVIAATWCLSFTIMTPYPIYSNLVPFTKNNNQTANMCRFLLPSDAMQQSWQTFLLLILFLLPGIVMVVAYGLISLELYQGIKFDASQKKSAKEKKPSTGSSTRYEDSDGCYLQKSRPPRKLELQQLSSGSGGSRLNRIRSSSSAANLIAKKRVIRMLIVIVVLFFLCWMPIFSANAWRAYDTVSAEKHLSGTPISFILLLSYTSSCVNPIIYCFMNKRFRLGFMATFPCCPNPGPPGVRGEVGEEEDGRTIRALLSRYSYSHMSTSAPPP
Experimental: The affinity of the compounds of formula I for peripheral CCK receptors was measured in vitro on rat pancreas homogenate. The inhibition of the binding of the physiologically relevant octopeptide CCK-8 to peripheral CCK receptors by the test substances was determined.
The receptor binding studies were carried out by a modification of the method of van Dijk et al. (J. Neuroscience 4 (1984), 1021-1033), using soya bean trypsin inhibitor (=SBTI) as protease inhibitor. ^3 [H]-CCK-8, code TRK 775, from Amersham Int., having a specific activity of 60-90 Ci/mmol, was used as tritium-labelled CCK-8.
Whole pancreas glands from male Wistar rats with a body weight of 150-300 g, which had been sacrificed by decapitation, were freed of fatty tissue and homogenized for 15 seconds in a 50-fold volume of an ice-cold test buffer solution (10 mmol 2-[4-(2-hydroxyethyl)-piperazin-1-yl]-ethanesulfonic acid (=HEPES), 130 mmol sodium chloride, 5 mmol magnesium chloride, 0.02% bacitracins, 0.01% SBTI, pH 7.4) with a Kinematica Polytron type homogenizer. The homogenates were then centrifuged at 48,000 g for 10 minutes. This washing method was repeated. After the last centrifugation, the residue which was obtained each time in the form of a pellet was suspended in a 550-fold volume of the test buffer solution and immediately used for the measurement.
For the binding test, 500 μl of the tissue homogenate were incubated with 50 μl of test buffer solution or 50 μl of a solution of the compound to be investigated and with 50 μl of a ^3 [H]-CCK-8 solution (final concentration 0.3 nM). The non-specific binding was assumed to be 0.1 μmol CCK-8. The incubation lasted 90 minutes at 25° C. All the compounds were measured 3 times at each of several concentrations.
Aqueous solutions were employed as test substance solutions and were prepared by appropriate dilution of 60×10^-4 molar aqueous stock solutions. Test substances which are sparingly soluble in water were first dissolved in 96% ethanol, and this solution was diluted with sufficient water for the ethanol concentration not to exceed 1.6% by volume in the solution to be tested.
Bound and free ^3 [H]-CCK-8 were separated by filtration through glass fiber filters. The filters were washed twice with 3 ml of HEPES solution each time and then placed in the scintillation solution (SAVE scintillation solution from Packard) in the dark overnight and counted in a Packard TriCarb 1500™liquid scintillation counter. The IC50 of the respective test substance was determined to be that concentration which caused a 50% inhibition of the specific binding of tritiated CCK-8 to the receptors. From this, the corresponding pKi value was calculated using the Cheng-Prusoff equation. […]

[3] = system: CCK-induced disturbance of stomach emptying; experiment: effect of test substances on CCK-induced disturbances of emptying of the stomach (charcoal transport into duodenum); assay type: in vivo, mouse (female NMRI)
Experimental: Doses of CCK lead to substantial blockade of the transpyloric transport of chyme from the stomach into the duodenum. The ability of the test substances to eliminate this blocking effect of CCK was investigated.
Female NMRI mice having body weights of 20-25 g were used in groups of ten animals each. […] A control group received only the Tylose® solution or the solution containing the solubilizer polyethylene glycol in each case. 60 minutes later the animals were given a subcutaneous injection of 80 Ig/kg CCK-8. After a further 5 minutes the animals were each orally administered 0.3 ml of a charcoal suspension (5% charcoal in 2% strength Tylose solution). The mice were sacrificed 5 minutes later and subsequently dissected. They were examined to find whether charcoal suspension had advanced into the duodenum.
The percentage of animals in which the CCK effect was eliminated and charcoal suspension was found in the duodenum after administration of the test substances was determined.

[4] = oral, lowest dose causing death or serious symptoms of toxicity, max 300 mg/kg, 24 h
[5] = dose 10 μmol/kg mouse oral, CCK-8 s.c. 60 min later
[6] = dose 1.0 μmol/kg mouse oral, CCK-8 s.c. 60 min later
[7] = dose 1.0* μmol/kg mouse oral, * = administered in solution containing solubilizer (PEG 400)

Structure (SMILES)	Minimum toxic dose [1, 4]	Ki [2]	also measured
CN1C(=O)C(NC(=O)c2cc3cccc4c3n2CCC4)N=C(c2ccc(F)cc2F)c2ccccc21 (centres unmarked) [Example 11]	300 mg/kg	2.4 nM	–
CN1C(=O)C(NC(=O)c2cc3cc(F)cc4c3n2CCC4)N=C(c2ccccc2)c2ccccc21 (centres unmarked) [Example 5, 3-[(8-fluoro-4H-pyrrolo[3,2,1-ij]-5,6-dihydroquinoline-2-carbonyl)-amino]-2-oxo-1-methyl-5-phenyl-1H-2,3-dihydro-1,4-benzodiazepine]	> 300 mg/kg	1.45 nM	% of Animals in which the CCK Effect was Eliminated [3, 5]: 75%
CN1C(=O)C(NC(=O)c2cc3cccc4c3n2CCS4)N=C(c2ccccc2)c2ccccc21 (centres unmarked) [Example 38]	–	0.977 nM	–
Cc1ccc2c(c1)C(c1ccc(Cl)c(Cl)c1)=NC(NC(=O)c1cc3cccc4c3n1CCC4)C(=O)N2C (centres unmarked) [Example 27]	–	–	% of Animals in which the CCK Effect was Eliminated [3, 6]: 40%
COc1ccc2c(c1)N(C)C(=O)C(NC(=O)c1cc3cccc4c3n1CCC4)N=C2c1c(F)cccc1F (centres unmarked) [Example 13]	> 300 mg/kg	1 nM	% of Animals in which the CCK Effect was Eliminated [3, 5]: 83%; % of Animals in which the CCK Effect was Eliminated [3, 7]: 100%
Cc1ccc2c(c1)C(c1ccccc1F)=NC(NC(=O)c1cc3cccc4c3n1CCC4)C(=O)N2C (centres unmarked) [Example 10]	300 mg/kg	–	% of Animals in which the CCK Effect was Eliminated ([3]; dose 0.1 μmol/kg mouse oral, CCK-8 s.c. 60 min later): 40%; In vitro binding to peripheral CCK receptors (pancreas) pKi values [2]: 8.75
Cc1ccc2c(c1)C(c1cccs1)=NC(NC(=O)c1cc3cccc4c3n1CCC4)C(=O)N2C (centres unmarked) [Example 8, 3-[(4H-Pyrrolo[3,2,1-ij]-5,6-dihydroquinoline-2-carbonyl)-amino]-1,7-dimethyl-2-oxo-5-(2-thienyl)-1H-2,3-dihydro-1,4-benzodiazepine]	–	9.12 nM	–
CN1C(=O)C(NC(=O)c2cc3cccc4c3n2CCO4)N=C(c2ccccc2)c2ccccc21 (centres unmarked) [Example 37]	–	0.646 nM	–
Cc1ccc(C2=NC(NC(=O)c3cc4cccc5c4n3CCC5)C(=O)N(C)c3ccccc32)cc1 (centres unmarked) [Example 30]	300 mg/kg	2.34 nM	–
CN1C(=O)C(NC(=O)c2cc3cccc4c3n2CCC4)N=C(c2ccccc2F)c2ccccc21 (centres unmarked) [Example 22]	> 300 mg/kg	0.912 nM	–
O=C(NC1N=C(c2ccccc2)c2ccccc2N(CC2CC2)C1=O)c1cc2cccc3c2n1CCC3 (centres unmarked) [Example 23]	> 300 mg/kg	10 nM	–
COc1ccc2c(c1)N(C)C(=O)C(NC(=O)c1cc3cccc4c3n1CCC4)N=C2c1c(F)cccc1OCCC(C)C (centres unmarked) [Example 17]	–	10 nM	% of Animals in which the CCK Effect was Eliminated [3, 7]: 50%
CN1C(=O)C(NC(=O)c2cc3cc(F)cc4c3n2CCC4)N=C(c2ccccc2)c2cc(Cl)ccc21 (centres unmarked) [Example 26]	–	6.17 nM	–
CN1C(=O)C(NC(=O)c2cc3cccc4c3n2CCC4)N=C(C2CCCCC2)c2ccccc21 (centres unmarked) [Example 4, 3-[(4H-pyrrolo[3,2,1-ij]-5,6-dihydroquinoline-2-carbonyl)-amino]-1-methyl-2-oxo-5-cyclohexyl-1H-2,3-dihydro-1,4-benzodiazepine]	–	2.51 nM	% of Animals in which the CCK Effect was Eliminated [3, 6]: 45%; Minimum toxic dose ([1]; in vivo, 1440 min): > 300 mg/kg
CC(C)N1C(=O)C(NC(=O)c2cc3cccc4c3n2CCC4)N=C(c2ccccc2)c2ccccc21 (centres unmarked) [Example 25]	> 300 mg/kg	24 nM	–
Cc1ccc2c(c1)C(c1ccccc1)=NC(NC(=O)c1cc3cccc4c3n1CCC4)C(=O)N2C (centres unmarked) [Example 18]	> 300 mg/kg	1.17 nM	–

Reference: patent US5010076A, “1,7-fused 1H-indole-2-carboxylic acid-N-(1,4-benzodiazepin-3-yl)amides” (Kali-Chemie Pharma GmbH, priority 1989, dated 1991)
